The source of these data is patent US20230017045A1, “PYRIDINE AND PYRIMIDINE CARBOXYLATE HERBICIDES AND METHODS OF USE THEREOF” (Dow AgroSciences LLC, priority 2017, published 2023).

The experiment has as its system test plant species. Nature of the experiment: Post-emergent herbicidal activity test (greenhouse, foliar spray, visual growth reduction). It is filed as in vivo. The conditions noted are these: post-emergence, 336 h, 140 g ai/ha. In short, it runs like this:
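Visual scoring 14 d after treatment (0 = no injury, 100 = complete control) against nontreated and solvent-blank plants gave percent growth reduction. Foliar application used a track sprayer delivering 187 L/ha to seedlings at first or second true leaf stage, grown at 23–29 °C day, ~15 h photoperiod.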

The mark [1] stands for this setting: ECHCG: barnyardgrass (Echinochloa crus-galli), 14 days after application, read-out: Visual Growth Reduction (%) 14 Days After Application, ECHCG.
[2] abbreviates: IPOHE: ivy-leaf morning glory (Ipomoea hederacea), 14 days after application, read-out: Visual Growth Reduction (%) 14 Days After Application, IPOHE.
Setting [3] is: KCHSC: kochia (Bassia scoparia), 14 days after application, read-out: Visual Growth Reduction (%) 14 Days After Application, KCHSC.
The mark [4] stands for this setting: ORYSA: rice (Oryza sativa), 14 days after application, read-out: Visual Growth Reduction (%) 14 Days After Application, ORYSA.
The mark [5] stands for this setting: SETFA: giant foxtail (Setaria faberi), 14 days after application, read-out: Visual Growth Reduction (%) 14 Days After Application, SETFA.
The mark [6] stands for this setting: SORVU: grain sorghum (Sorghum vulgare), 14 days after application, read-out: Visual Growth Reduction (%) 14 Days After Application, SORVU.
Where [7] appears, read: STEME: common chickweed (Stellaria media), 14 days after application, read-out: Visual Growth Reduction (%) 14 Days After Application, STEME.
Setting [8] is: TRZAS: wheat, spring (Triticum aestivum), 14 days after application, read-out: Visual Growth Reduction (%) 14 Days After Application, TRZAS.
[9] abbreviates: blackgrass (Alopecurus myosuroides), 14 Days After Application, read-out: Visual Growth Reduction (%) ALOMY.
Where [10] appears, read: crabgrass (Digitaria sanguinalis), 14 Days After Application, read-out: Visual Growth Reduction (%) DIGSA.
Where [11] appears, read: lambsquarters (Chenopodium album), 14 Days After Application, read-out: Visual Growth Reduction (%) CHEAL.
[12] abbreviates: redroot pigweed (Amaranthus retroflexus), 14 Days After Application, read-out: Visual Growth Reduction (%) AMARE.
[13] abbreviates: wild oat (Avena fatua), 14 Days After Application, read-out: Visual Growth Reduction (%) AVEFA.
Where [14] appears, read: yellow nutsedge (Cyperus esculentus), 14 Days After Application, read-out: Visual Growth Reduction (%) CYPES.
Setting [15] is: canada thistle (Cirsium arvense), 14 Days After Application, read-out: Visual Growth Reduction (%) CIRAR.

Where two headings read alike, the source gives them in different places.

Turning to `CSc1cc(-c2nc(C(=O)O)c(Cl)cc2F)c(Cl)cc1C(F)(F)F` [F342, 3-Chloro-6-(2-chloro-5-(methylthio)-4-(trifluoromethyl)phenyl)-5-fluoropicolinic acid], the pest or weed control at 140 g/ha was in the range of 0 to 29% under setting [1]; 85 to 94% under setting [2]; 85 to 94% under setting [3]; 0 to 29% under setting [4]; 30 to 44% under setting [5]; 30 to 44% under setting [6]. The pest or weed control at 140 g/ha under setting [7] was in the range of 0 to 29%; the pest or weed control at 140 g/ha under setting [8] is 30 to 44%; the pest or weed control at 140 g/ha under setting [9] is 0 to 29%; the pest or weed control at 140 g/ha under setting [10] was in the range of 0 to 29%; the pest or weed control at 140 g/ha under setting [11] fell in the range of 60 to 74%; the pest or weed control at 140 g/ha under setting [12] fell in the range of 0 to 29%. Also, the pest or weed control at 140 g/ha under setting [13] was in the range of 0 to 29% and the pest or weed control at 140 g/ha under setting [14] lay in the range of 0 to 29%.
As to `COC(=O)c1nc(-c2ccc(OS(C)(=O)=O)cc2F)c(F)cc1Cl` [F343], the pest or weed control at 140 g/ha fell in the range of 85 to 94% under setting [1]; 95 to 100% under setting [2]; 85 to 94% under setting [3]; 30 to 44% under setting [4]; 85 to 94% under setting [5]; 95 to 100% under setting [6]. Further, the pest or weed control at 140 g/ha runs as follows: under setting [7], 0 to 29%; under setting [8], 60 to 74%; under setting [9], 0 to 29%; under setting [15], 95 to 100%; under setting [10], 85 to 94%; under setting [11], 85 to 94%. In addition, the pest or weed control at 140 g/ha runs as follows: under setting [12], 95 to 100%; under setting [13], 30 to 44%; under setting [14], 30 to 44%.
Consider `COc1cc2c(cc1-c1nc(C(=O)O)c(Cl)cc1F)OC(F)(F)O2` [F344, 3-Chloro-6-(2,2-difluoro-6-methoxybenzo[d][1,3]dioxol-5-yl)-5-fluoropicolinic acid], for which the pest or weed control at 140 g/ha reads like this: under setting [1], 0 to 29%; under setting [2], 95 to 100%; under setting [3], 45 to 59%; under setting [4], 0 to 29%; under setting [5], 60 to 74%; under setting [6], 75 to 84%. Besides, the pest or weed control at 140 g/ha is, setting by setting: under setting [7], 0 to 29%; under setting [8], 45 to 59%; under setting [9], 0 to 29%; under setting [10], 60 to 74%; under setting [11], 30 to 44%; under setting [12], 0 to 29%. Besides, the pest or weed control at 140 g/ha is, setting by setting: under setting [13], 0 to 29%; under setting [14], 0 to 29%.
Turning to `COC(=O)c1nc(-c2ccc(O)cc2F)c(F)cc1Cl` [F345, Methyl 3-chloro-5-fluoro-6-(2-fluoro-4-hydroxyphenyl) picolinate], the pest or weed control at 140 g/ha reads like this: under setting [1], 0 to 29%; under setting [2], 0 to 29%; under setting [3], 0 to 29%; under setting [4], 0 to 29%; under setting [5], 0 to 29%; under setting [6], 0 to 29%. Also, the pest or weed control at 140 g/ha reads like this: under setting [7], 0 to 29%; under setting [8], 0 to 29%; under setting [9], 0 to 29%; under setting [15], 0 to 29%; under setting [10], 0 to 29%; under setting [11], 0 to 29%. In addition, the pest or weed control at 140 g/ha under setting [12] is 0 to 29%, the pest or weed control at 140 g/ha under setting [13] fell in the range of 0 to 29% and the pest or weed control at 140 g/ha under setting [14] was in the range of 0 to 29%.
`COC(=O)c1nc(-c2ccc(Cl)c3ccccc23)c(F)cc1Cl` [F346, Methyl 3-chloro-6-(4-chloronaphthalen-1-yl)-5-fluoropicolinate]: the pest or weed control at 140 g/ha was in the range of 0 to 29% under setting [1]; 30 to 44% under setting [2]; 0 to 29% under setting [3]; 0 to 29% under setting [4]; 0 to 29% under setting [5]; 0 to 29% under setting [6]. The pest or weed control at 140 g/ha runs as follows: under setting [7], 0 to 29%; under setting [8], 0 to 29%; under setting [9], 0 to 29%; under setting [10], 0 to 29%; under setting [11], 0 to 29%; under setting [12], 0 to 29%. Moreover, the pest or weed control at 140 g/ha lay in the range of 0 to 29% under setting [13] and 0 to 29% under setting [14].
For `COc1nc(C(F)(F)F)ccc1-c1nc(C(=O)O)c(Cl)cc1F` [F347, 5-Chloro-3-fluoro-2′-methoxy-6′-(trifluoromethyl)-[2,3′-bipyridine]-6-carboxylic acid], the pest or weed control at 140 g/ha runs as follows: under setting [1], 85 to 94%; under setting [2], 95 to 100%; under setting [3], 85 to 94%; under setting [4], 30 to 44%; under setting [5], 85 to 94%; under setting [6], 85 to 94%. The pest or weed control at 140 g/ha under setting [7] lay within 0 to 29%; the pest or weed control at 140 g/ha under setting [8] was 75 to 84%; the pest or weed control at 140 g/ha under setting [9] is 60 to 74%; the pest or weed control at 140 g/ha under setting [15] lay within 85 to 94%; the pest or weed control at 140 g/ha under setting [10] was in the range of 95 to 100%; the pest or weed control at 140 g/ha under setting [11] lay in the range of 95 to 100%. In addition, the pest or weed control at 140 g/ha runs as follows: under setting [12], 95 to 100%; under setting [13], 60 to 74%; under setting [14], 0 to 29%.
`COC(=O)c1nc(-c2ccc(N)cc2F)c(F)cc1Cl` [F348, Methyl 6-(4-amino-2-fluorophenyl)-3-chloro-5-fluoropicolinate]: the pest or weed control at 140 g/ha by setting is: under setting [1], 0 to 29%; under setting [2], 0 to 29%; under setting [3], 0 to 29%; under setting [4], 0 to 29%; under setting [5], 0 to 29%; under setting [6], 0 to 29%. Also, the pest or weed control at 140 g/ha under setting [7] is 0 to 29%; the pest or weed control at 140 g/ha under setting [8] lay in the range of 0 to 29%; the pest or weed control at 140 g/ha under setting [9] was 0 to 29%; the pest or weed control at 140 g/ha under setting [10] lay in the range of 0 to 29%; the pest or weed control at 140 g/ha under setting [11] fell in the range of 0 to 29%; the pest or weed control at 140 g/ha under setting [12] was in the range of 0 to 29%. Further, the pest or weed control at 140 g/ha lay in the range of 0 to 29% under setting [13] and 0 to 29% under setting [14].
Turning to `O=C(O)c1nc(-c2cc(Br)c(C(F)(F)F)cc2Cl)ccc1Cl` [F349, 6-(5-Bromo-2-chloro-4-(trifluoromethyl)phenyl)-3-chloropicolinic acid], the pest or weed control at 140 g/ha under setting [1] fell in the range of 0 to 29%; the pest or weed control at 140 g/ha under setting [2] fell in the range of 95 to 100%; the pest or weed control at 140 g/ha under setting [3] was 85 to 94%; the pest or weed control at 140 g/ha under setting [4] was in the range of 0 to 29%; the pest or weed control at 140 g/ha under setting [5] lay in the range of 75 to 84%; the pest or weed control at 140 g/ha under setting [6] is 85 to 94%. The pest or weed control at 140 g/ha was 0 to 29% under setting [7]; 85 to 94% under setting [8]; 60 to 74% under setting [9]; 75 to 84% under setting [10]; 95 to 100% under setting [11]; 60 to 74% under setting [12]. Further, the pest or weed control at 140 g/ha under setting [13] lay within 60 to 74% and the pest or weed control at 140 g/ha under setting [14] was 0 to 29%.
Consider `C=Cc1cc(-c2nc(C(=O)O)c(Cl)cc2F)c(Cl)cc1C(F)(F)F` [F350, 3-Chloro-6-(2-chloro-4-(trifluoromethyl)-5-vinylphenyl)-5-fluoropicolinic acid], for which the pest or weed control at 140 g/ha was in the range of 0 to 29% under setting [1]; 85 to 94% under setting [2]; 85 to 94% under setting [3]; 0 to 29% under setting [4]; 0 to 29% under setting [5]; 0 to 29% under setting [6]. Moreover, the pest or weed control at 140 g/ha is 0 to 29% under setting [7]; 0 to 29% under setting [8]; 0 to 29% under setting [9]; 30 to 44% under setting [10]; 60 to 74% under setting [11]; 30 to 44% under setting [12]. For the same compound, the pest or weed control at 140 g/ha under setting [13] was in the range of 0 to 29% and the pest or weed control at 140 g/ha under setting [14] lay in the range of 0 to 29%.
